Measured values as given in ChEMBL document CHEMBL1201862, “PubChem BioAssay data set” (2004).
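Cultured in 96-well plates, cells were exposed to test compound for 48 hours across five concentrations. GI50 marks 50% less growth.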 Activity calls are given as the source filed them. No stated cut-off is given here; in the data, active = GI50 up to about 1.1 µM and inactive = higher.

Legend:
Assay in all cases: DTP human tumour cell line panel, 48 h
HCT-116 = system: HCT-116
SNB-78 = system: SNB-78
A549 = system: A549
OVCAR-4 = system: OVCAR-4
HT-29 = system: HT-29
RXF 393 = system: RXF 393
SK-MEL-5 = system: SK-MEL-5
SK-MEL-2 = system: SK-MEL-2
CAKI-1 = system: CAKI-1
CCRF-CEM = system: CCRF-CEM
SK-OV-3 = system: SK-OV-3
SNB-19 = system: SNB-19
IGROV-1 = system: IGROV-1
NCI-H460 = system: NCI-H460
K562 = system: K562
ACHN = system: ACHN
NCI/ADR-RES = system: NCI/ADR-RES
Hs-578T = system: Hs-578T
DU-145 = system: DU-145
T47D = system: T47D

Measured: GI50

CCN(CC)c1ccc(/N=N\c2ccc(-c3nc4ccc[n+](C)c4s3)cc2)cc1
inactive: HCT-116 3.53 µM | SNB-78 4.37 µM | A549 4.2 µM | OVCAR-4 6.5 µM | HT-29 5.25 µM | RXF 393 > 10 µM | SK-MEL-5 5.48 µM | SK-MEL-2 7.83 µM | CAKI-1 19.7 µM | CCRF-CEM 3.05 µM | SK-OV-3 16.1 µM | SNB-19 5.3 µM | IGROV-1 8.18 µM | NCI-H460 4.01 µM | K562 2.4 µM

CC#N.O[C@@H]1CCCC[C@H]1O.O[C@@H]1CCCC[C@H]1O.[TeH2]
inactive: HCT-116 13.4 µM | SNB-78 > 100 µM | A549 41.5 µM | OVCAR-4 61.8 µM | HT-29 28.2 µM | RXF 393 > 100 µM | ACHN 46.3 µM | SK-MEL-5 33.3 µM | SK-MEL-2 > 100 µM | CAKI-1 > 100 µM | CCRF-CEM 20.2 µM | SK-OV-3 > 100 µM | SNB-19 39.8 µM | IGROV-1 41.6 µM | NCI-H460 2.99 µM | K562 25.8 µM

CC1=C2C(O)C(C(C)C(=O)NCC(C)C)CCC2(C)C=CC1=O (stereo not given)
inactive: HCT-116 > 100 µM | SNB-78 > 100 µM | A549 > 100 µM | OVCAR-4 > 100 µM | NCI/ADR-RES > 100 µM | HT-29 > 100 µM | RXF 393 > 100 µM | SK-MEL-5 > 100 µM | SK-MEL-2 > 100 µM | CAKI-1 > 100 µM | CCRF-CEM > 100 µM | SNB-19 > 100 µM | IGROV-1 > 100 µM | NCI-H460 > 100 µM | K562 > 100 µM

O=C1c2ccccc2OCC1/C=N/O (stereo not given)
inactive: HCT-116 > 100 µM | SNB-78 > 72.9 µM | A549 > 100 µM | OVCAR-4 > 62.5 µM | NCI/ADR-RES > 100 µM | HT-29 62.7 µM | RXF 393 32.4 µM | SK-MEL-5 > 85.5 µM | SK-MEL-2 86.3 µM | CCRF-CEM > 100 µM | SK-OV-3 > 100 µM | IGROV-1 82.2 µM | NCI-H460 > 100 µM | K562 > 100 µM

NS(=O)(=O)c1ccc(NC(=O)c2cccc3cc4ccccc4nc23)cc1
inactive: HCT-116 4.69 µM | SNB-78 > 100 µM | A549 10 µM | Hs-578T 8.53 µM | OVCAR-4 21 µM | NCI/ADR-RES 11.8 µM | HT-29 8.3 µM | RXF 393 17.7 µM | ACHN 6.64 µM | DU-145 > 100 µM | SK-MEL-5 17.3 µM | SK-MEL-2 > 100 µM | CAKI-1 10.1 µM | CCRF-CEM 7.71 µM | SK-OV-3 > 88.7 µM | SNB-19 28.3 µM | T47D 96.6 µM | IGROV-1 > 78.2 µM | NCI-H460 5.02 µM | K562 30.1 µM

O=C(NCCO)c1cc2c(cn1)[nH]c1ccccc12
inactive: HCT-116 > 100 µM | SNB-78 > 100 µM | A549 > 100 µM | OVCAR-4 > 100 µM | HT-29 > 100 µM | RXF 393 > 100 µM | ACHN > 100 µM | SK-MEL-5 > 100 µM | SK-MEL-2 16.8 µM | CAKI-1 > 100 µM | CCRF-CEM > 100 µM | SK-OV-3 > 100 µM | SNB-19 > 100 µM | IGROV-1 > 100 µM | NCI-H460 > 100 µM | K562 > 100 µM

COC(=O)c1sc(C(=O)OC)c2c1C[S+]([O-])C2
inactive: HCT-116 > 100 µM | SNB-78 > 100 µM | A549 > 100 µM | OVCAR-4 > 100 µM | HT-29 > 100 µM | RXF 393 > 100 µM | SK-MEL-5 > 100 µM | SK-MEL-2 > 100 µM | CAKI-1 > 100 µM | CCRF-CEM > 100 µM | SK-OV-3 > 100 µM | SNB-19 > 100 µM | IGROV-1 > 100 µM | K562 > 100 µM

Cc1oc2c(C)c3oc(=O)cc(C)c3cc2c1CN1C(=O)C2OCCOCCOCCOCCOCCO[C@H]2C1=O (stereo not given in full)
inactive: HCT-116 > 100 µM | SNB-78 > 100 µM | A549 > 100 µM | OVCAR-4 > 100 µM | HT-29 > 100 µM | RXF 393 > 100 µM | ACHN > 100 µM | SK-MEL-5 > 100 µM | CAKI-1 > 100 µM | CCRF-CEM > 100 µM | SK-OV-3 > 100 µM | SNB-19 > 100 µM | IGROV-1 > 100 µM | NCI-H460 > 100 µM | K562 > 100 µM

Cn1cc(NC(=O)c2cc(NC(=O)CCCCCCCC(=O)Nc3cc(C(=O)Nc4cc(C(=O)NCCC(=N)N)n(C)c4)n(C)c3)cn2C)cc1C(=O)NCCC(=N)N
inactive: HCT-116 17.9 µM | SNB-78 35.2 µM | A549 13.9 µM | OVCAR-4 46.1 µM | HT-29 63.1 µM | RXF 393 17 µM | ACHN 58.1 µM | SK-MEL-5 7.53 µM | SK-MEL-2 14.1 µM | CAKI-1 18.8 µM | CCRF-CEM 25.3 µM | SK-OV-3 > 100 µM | SNB-19 55.1 µM | IGROV-1 5.82 µM | NCI-H460 4.69 µM | K562 11 µM

CCCCCCCCCCCCCCNCC(OC)OC
inactive: HCT-116 13.1 µM | SNB-78 17.4 µM | A549 19.5 µM | OVCAR-4 15.1 µM | HT-29 3.78 µM | RXF 393 14.7 µM | ACHN 16.2 µM | SK-MEL-5 15.2 µM | SK-MEL-2 16.4 µM | CCRF-CEM 9.18 µM | SK-OV-3 18.7 µM | SNB-19 17.9 µM | IGROV-1 17 µM | NCI-H460 17.8 µM

COc1nc(N)c(C(=O)CCl)c(=O)n1C
inactive: HCT-116 10.9 µM | SNB-78 12 µM | A549 18 µM | OVCAR-4 15.4 µM | HT-29 16 µM | RXF 393 7.35 µM | ACHN 20.6 µM | SK-MEL-5 15.1 µM | SK-MEL-2 12.5 µM | CAKI-1 7.41 µM | CCRF-CEM 15.1 µM | SNB-19 17.7 µM | IGROV-1 13.6 µM | NCI-H460 19 µM | K562 8.17 µM
